Measured values reported in ChEMBL document CHEMBL3885881, “DrugMatrix”.

Organism: Rattus norvegicus
Assay: DrugMatrix - Regimen: Daily Repeat
Assay type: toxicity, organism-based, Sprague-Dawley
Design: regimen Daily Repeat, gender Male, age 6-8 weeks
Conditions: in vivo, po, route oral GAVAGE, vehicle .5 % CMC; for ABSOLUTE BASOPHIL / ABSOLUTE EOSINOPHIL / ABSOLUTE LYMPHOCYTE / ABSOLUTE MONOCYTE / ABSOLUTE SEGMENTED NEUTROPHIL / BASOPHIL / EOSINOPHIL / ERYTHROCYTE COUNT / HEMATOCRIT / HEMOGLOBIN / LEUKOCYTE COUNT / LYMPHOCYTE / MEAN CORPUSCULAR HEMOGLOBIN / MEAN CORPUSCULAR HEMOGLOBIN CONCENTRATION / MEAN CORPUSCULAR VOLUME / MONOCYTE / NEUTROPHIL / NUCLEATED RED BLOOD CELLS / PLATELET COUNT: tissue Blood; for ALANINE AMINOTRANSFERASE / ALBUMIN / ALKALINE PHOSPHATASE / ASPARTATE AMINOTRANSFERASE / BLOOD UREA NITROGEN / CARBON DIOXIDE / CHLORIDE / CHOLESTEROL / CREATINE PHOSPHOKINASE / CREATININE / GLUCOSE / LACTATE DEHYDROGENASE / LIPASE / PHOSPHORUS / POTASSIUM / SODIUM / TOTAL BILIRUBIN / TOTAL PROTEIN / URIC ACID: tissue Plasma
[1] = 100 mg/kg, 120 h, dose level Low, time 5 day
[2] = 2500 mg/kg, 72 h, dose level High, time 3 day
[3] = 2500 mg/kg, 120 h, dose level High, time 5 day

## COC1=C(OC)C(=O)C(CCCCCCCCCCO)=C(C)C1=O [IDEBENONE]
[1]
  ABSOLUTE BASOPHIL: 0 CELLS/uL
  ABSOLUTE EOSINOPHIL: 0 CELLS/uL
  ABSOLUTE LYMPHOCYTE: 14055 CELLS/uL
  ABSOLUTE MONOCYTE: 144.33 CELLS/uL
  ABSOLUTE SEGMENTED NEUTROPHIL: 1000.67 CELLS/uL
  BASOPHIL: 0%
  EOSINOPHIL: 0%
  ERYTHROCYTE COUNT: 5.62 x10E6/uL
  HEMATOCRIT: 35.7%
  HEMOGLOBIN: 14.47 G/DL
  LEUKOCYTE COUNT: 15.2 x10E3/uL
  LYMPHOCYTE: 92.33%
  MEAN CORPUSCULAR HEMOGLOBIN: 25.8 pg
  MEAN CORPUSCULAR HEMOGLOBIN CONCENTRATION: 40.57 G/DL
  MEAN CORPUSCULAR VOLUME: 63.63 fL
  MONOCYTE: 1%
  NEUTROPHIL: 6.67%
  NUCLEATED RED BLOOD CELLS: 0.33 /100WBC
  PLATELET COUNT: 1018.67 x10E3/uL
  ALANINE AMINOTRANSFERASE: 63.67 u/L
  ALBUMIN: 4.47 G/DL
  ALKALINE PHOSPHATASE: 410 u/L
  ASPARTATE AMINOTRANSFERASE: 93 u/L
  BLOOD UREA NITROGEN: 16 mg/dL
  CARBON DIOXIDE: 32.33 mmol/L
  CHLORIDE: 102.67 MEQ/L
  CHOLESTEROL: 71.67 mg/dL
  CREATINE PHOSPHOKINASE: 369.33 u/L
  CREATININE: 0.13 mg/dL
  GLUCOSE: 152.33 mg/dL
  LACTATE DEHYDROGENASE: 136 u/L
  LIPASE: 10.33 u/L
  PHOSPHORUS: 11.63 mg/dL
  POTASSIUM: 6.29 MEQ/L
  SODIUM: 145.4 MEQ/L
  TOTAL BILIRUBIN: 0.13 mg/dL
  TOTAL PROTEIN: 6.13 G/DL
  URIC ACID: 1.03 mg/dL
[2]
  ABSOLUTE BASOPHIL: 0 CELLS/uL
  ABSOLUTE EOSINOPHIL: 0 CELLS/uL
  ABSOLUTE LYMPHOCYTE: 12762.67 CELLS/uL
  ABSOLUTE MONOCYTE: 85.33 CELLS/uL
  ABSOLUTE SEGMENTED NEUTROPHIL: 1385.33 CELLS/uL
  BASOPHIL: 0%
  EOSINOPHIL: 0%
  ERYTHROCYTE COUNT: 5.73 x10E6/uL
  HEMATOCRIT: 36.83%
  HEMOGLOBIN: 14 G/DL
  LEUKOCYTE COUNT: 14.23 x10E3/uL
  LYMPHOCYTE: 89.33%
  MEAN CORPUSCULAR HEMOGLOBIN: 24.43 pg
  MEAN CORPUSCULAR HEMOGLOBIN CONCENTRATION: 38 G/DL
  MEAN CORPUSCULAR VOLUME: 64.3 fL
  MONOCYTE: 0.67%
  NEUTROPHIL: 10%
  NUCLEATED RED BLOOD CELLS: 0.33 /100WBC
  PLATELET COUNT: 1207.33 x10E3/uL
  ALANINE AMINOTRANSFERASE: 63.67 u/L
  ALBUMIN: 4.23 G/DL
  ALKALINE PHOSPHATASE: 312.33 u/L
  ASPARTATE AMINOTRANSFERASE: 80.67 u/L
  BLOOD UREA NITROGEN: 13.67 mg/dL
  CARBON DIOXIDE: 32.33 mmol/L
  CHLORIDE: 103.67 MEQ/L
  CHOLESTEROL: 71.33 mg/dL
  CREATINE PHOSPHOKINASE: 242.67 u/L
  CREATININE: 0.15 mg/dL
  GLUCOSE: 157.67 mg/dL
  LACTATE DEHYDROGENASE: 80.67 u/L
  LIPASE: 11 u/L
  PHOSPHORUS: 10.1 mg/dL
  POTASSIUM: 6.3 MEQ/L
  SODIUM: 144.83 MEQ/L
  TOTAL BILIRUBIN: 0.17 mg/dL
  TOTAL PROTEIN: 5.33 G/DL
  URIC ACID: 1.27 mg/dL
[3]
  ABSOLUTE BASOPHIL: 0 CELLS/uL
  ABSOLUTE EOSINOPHIL: 79.33 CELLS/uL
  ABSOLUTE LYMPHOCYTE: 11851 CELLS/uL
  ABSOLUTE MONOCYTE: 40.67 CELLS/uL
  ABSOLUTE SEGMENTED NEUTROPHIL: 1262.33 CELLS/uL
  BASOPHIL: 0%
  EOSINOPHIL: 0.67%
  ERYTHROCYTE COUNT: 5.54 x10E6/uL
  HEMATOCRIT: 33.87%
  HEMOGLOBIN: 13.77 G/DL
  LEUKOCYTE COUNT: 13.23 x10E3/uL
  LYMPHOCYTE: 89.33%
  MEAN CORPUSCULAR HEMOGLOBIN: 24.87 pg
  MEAN CORPUSCULAR HEMOGLOBIN CONCENTRATION: 40.67 G/DL
  MEAN CORPUSCULAR VOLUME: 61.17 fL
  MONOCYTE: 0.33%
  NEUTROPHIL: 9.67%
  NUCLEATED RED BLOOD CELLS: 0 /100WBC
  PLATELET COUNT: 1402 x10E3/uL
  ALANINE AMINOTRANSFERASE: 63 u/L
  ALBUMIN: 4.47 G/DL
  ALKALINE PHOSPHATASE: 280.33 u/L
  ASPARTATE AMINOTRANSFERASE: 108 u/L
  BLOOD UREA NITROGEN: 18.33 mg/dL
  CARBON DIOXIDE: 30 mmol/L
  CHLORIDE: 101.33 MEQ/L
  CHOLESTEROL: 63.33 mg/dL
  CREATINE PHOSPHOKINASE: 512 u/L
  CREATININE: 0.19 mg/dL
  GLUCOSE: 146.67 mg/dL
  LACTATE DEHYDROGENASE: 149.33 u/L
  LIPASE: 8.67 u/L
  PHOSPHORUS: 9.97 mg/dL
  POTASSIUM: 6.03 MEQ/L
  SODIUM: 145.03 MEQ/L
  TOTAL BILIRUBIN: 0.23 mg/dL
  TOTAL PROTEIN: 6.1 G/DL
  URIC ACID: 0.9 mg/dL
